Entries after “also recorded” stand apart in the source; their conditions may differ.
Experiments:
[1] = In vivo toxicity study for DMAT; parameters: species or system mouse
Method: In vivo toxicity study for DMAT. A male nude mouse (without tumors) was treated with DMAT to determine a toxicity level. A saturated solution of DMAT in DMSO was inoculated daily in the neck subcutaneously (100 μl of 100 mg/ml DMAT in DMSO). Therefore this animal received 10 mg DMAT per day. After 2 weeks this animal was sacrificed and organs were collected for further analysis.

MCF-7 cells = assay: Annexin V apoptosis/necrosis assay, MCF-7; assay type: cell-based, human
Method: Apoptosis Assays using Flow Cytometry with Annexin V-FITC and propidium iodide (PI). For induction of typical apoptosis, cells were grown in the presence of 1 μM staurosporine (Sigma-Aldrich) for 6 hours. The staurosporine treated cells were stained as follows: control 1 with PI, control 2 with Annexin V-FITC and control 3 both PI and Annexin V-FITC in order to have the brightest controls for compensation and proper collection of the flow cytometry data. Cell necrosis was induced by heat shock (65° C. for 30 minutes). The stained control, both PI and Annexin V-FITC labeled, was then used as the reference in establishing the level of apoptosis induced by the treatments. Data was collected on logarithmic modes, two-colors. Annexin V-FITC corresponds to FL1 H channel, and PI to FL3H or FL2H channels.
Annexin V-FITC and PI apoptosis assay staining protocol. Apoptosis Annexin V-FITC and PI kit from BD Biosciences, CA, USA, was used. 10^5-10^6 cells were stained with 50 μg/ml PI and with 0.5 μg/ml FITC-labeled Annexin V using the staining protocol provided by the supplier. Samples were then analyzed immediately by flow cytometry.

MEG-01 xenografts = assay: Tail-bleeding assay in MEG-01 xenograft mice; assay type: in vivo; conditions: DMAT treated xenograft mice vs normal mice or control mice
Method: At the end of the trial, tail-bleeding times assay was performed and blood was collected for blood counts from live and anesthetized mice. After these experiments were completed mice were sacrificed and tumors and organs were collected. Samples were fixed in formalin for further processing.
Tail-bleeding assay. Tail-bleeding times are important to investigate whether the platelets could establish hemostasis in vivo. Platelet aggregation and clot retraction in response to physiologic agonists adenosine diphosphate (ADP), epinephrine, and thrombin will affect tail-bleeding times.
Normal tail-bleeding times are an average of 1.5-2 minutes in C57BL mouse strain.
Pre-warm tubes of saline (PBS) at 37° C. and maintained at this temperature during the measurements were used. Inhalation of isoflurane vapor or, alternatively, intraperitoneal injection of avertin was used to induce general anesthesia. Using a sharp new razor or scalpel blade, tails were cut exactly 0.5 cm of the distal tip of the tail of the adult mouse and immediately inserted into the pre-warmed tube of saline. A stopclock was started at this time. The tail was hold gently, near its base, to avoid a “tourniquet effect.” Venous blood flowing into the tube can be observed and can it can be detected when this bleeding stops. The stopclock provides an accurate bleeding time.

SW-480 cells = assay: Proliferation assay in vitro, SW-480; assay type: cell-based, human; conditions: four days
Source text: Viability (proliferation) assay, Trypan blue exclusion. Cells were counted using a Neubauer hemacytometer.

MEG-01 cells = assay: RPE-CD41a (αIIbβ3 integrin) flow cytometric immunophenotyping, maturation of MEG-01; assay type: cell-based, human; conditions: 10 μM DMAT vs control untreated
Method: Flow cytometric analysis. Cells were analyzed using a FACSCalibur flow cytofluorometer (Becton-Dickinson), with CellQuestPro ver. 3.3 software. The data was further analyzed with FlowJo ver. 6.2, and WinMDI 2.8 software. Proper gating was performed to characterize each cell population (MEG-01 cells and platelets). The population that corresponds to platelets (small, granulated particles), is PI negative because thrombocytes are anucleated cells (only the viable cells were considered) and were distinguished by their capacity to become activated, undergoing shape change in response to agonist and to show phosphatidylserine (PS) exposure when activated. Platelets were further separated from the megakaryocytic cells, by differential centrifugation, considering the size difference between these cell populations (1-5 μm for platelets and 35-150 μm for megakaryocytic cell line MEG-01) and analyzed separately. Voltage and channels settings were adjusted accordingly. Analyzed values were obtained with WinMDI ver. 2.8.
RPE-CD41a immunophenotyping of MEG-01 cells. CD41a is the antigen for αIIbβ3 complex and it is found on platelets and platelet precursors, including MEG-01 cell line. αIIbβ3 complex is a marker of differentiation for megakaryocytes. […] Cells were counted and adjusted to 10^6 cells/ml and 20 μl of RPE-CD41a was used for 180 μl cell suspension. […]

[2] = 200 mg/kg per day DMAT (in DMSO), subcutaneous in the neck, 2 weeks

## CN(C)c1nc2c(Br)c(Br)c(Br)c(Br)c2[nH]1 [DMAT, 2-dimethylamino-4,5,6,7-tetrabromo-1H-benzimidazole]
[1]; 10 mg/day/animal for 2 weeks
  histological analyses of all organs vs control animal (not injected): did not show any difference
[1]; [2]
  behavior: generally normal behavior
  liver size: appeared to have increased in size
[1]; 200 mg/kg per day DMAT (in DMSO), subcutaneous in the neck, 2 weeks, male athymic nude mouse
  injection site: irritated and swollen like a cyst
MCF-7 cells; 10 μM DMAT, 24 hours
  level of apoptotic cells: 28.4%
  level of necrotic cells: 8.7%
MCF-7 cells; 20 μM DMAT
  level of apoptotic cells: 49.0%
  level of necrotic cells: 7.8%
MEG-01 xenografts
  tail bleeding times: in certain instances, longer
SW-480 cells; 10 μM DMAT
  cell counts: cell counts between the control and the SW-480 cells treated with 20 μM
SW-480 cells; 20 μM DMAT
  cell counts / proliferation: lowest cell counts; also recorded: proliferation arrest
MEG-01 cells
  maturation level (αIIbβ3 integrin expression, RPE-CD41a): significant maturation levels

From patent publication US20090054507A1, “CONTROL OF MALIGNANT CELLS BY KINASE INHIBITION” (CLEVELAND STATE UNIVERSITY, priority 2006, published 2009)
